In assay [1] the target is T1, Dipeptidyl-peptidase IV (D7052, from porcine kidney) (Sus scrofa, UniProt P22411).
T1 construct: Dipeptidyl-peptidase IV (D7052, from porcine kidney); purchased Sigma-Aldrich D7052; host or cells: porcine kidney (tissue-derived)
Briefly: Determination of DPP-IV-inhibitory activity (Gly-Pro-p-nitroanilide substrate, absorbance 405 nm). The assay is classed as biochemical. The conditions noted are these: synthetic peptides and diprotin A, present example (FIG. 4A-4C). The procedure:
Atlantic salmon (Salmo salar) fish skins, processing byproducts recovered from fresh skin-off fillets, were supplied by Albion Fisheries Ltd. (Vancouver, BC, Canada). The fish skins were transferred on ice, vacuum packed, and stored at −25° C. until use. Three food-grade proteolytic enzymes were donated by Neova Technologies Inc. (Abbotsford, BC, Canada). Alcalase 2.4 L FG (from Bacillus licheniformis, 2.4 AU/g) and Flavourzyme 1000 L (from Aspergillus oryzae, 1000 LAPU/g) were products from Novo-zymes North America Inc. (Salem, N.C., […]), whereas bromelain (from pineapple stem, 2000 GDU/g) was manufactured by Ultra Bio-Logics Inc. (Montreal, QC, Canada), Dipeptidyl-peptidase IV (D7052, from porcine kidney), Gly-Prop-nitroanilide hydrochloride, trichloroacetic acid (TCA), L-leucine, and diprotin A were purchased from Sigma-Aldrich (St. Louis, Mo.). Trinitrobenzenesulfonic acid (TNBS) was obtained from Fluka Biochemika Oakville ON, Canada). Other chemicals and reagents used were of analytical grade and commercially available,
DPP-IV activity determination was performed in 96-well microplates. In order to measure an increment in absorbance at 405 nm, Gly-Pro-p-nitroanilide is used as a DPP-IV substrate. […] The absorbance of the resulting solution was measured at 405 nm with a microplate reader (iEMS reader MF; Labsystems, Helsinki, Finland).

A further assay deals with DPP-IV (Homo sapiens, UniProt P27487). The conditions noted are these: previous studies; read-out: IC50 values against DPP-IV; cited from earlier work.

pIC50: −log10 of the molar value. Residues, ends and D or L forms follow the SMILES beside them.

T1 sequence (P22411 whole entry): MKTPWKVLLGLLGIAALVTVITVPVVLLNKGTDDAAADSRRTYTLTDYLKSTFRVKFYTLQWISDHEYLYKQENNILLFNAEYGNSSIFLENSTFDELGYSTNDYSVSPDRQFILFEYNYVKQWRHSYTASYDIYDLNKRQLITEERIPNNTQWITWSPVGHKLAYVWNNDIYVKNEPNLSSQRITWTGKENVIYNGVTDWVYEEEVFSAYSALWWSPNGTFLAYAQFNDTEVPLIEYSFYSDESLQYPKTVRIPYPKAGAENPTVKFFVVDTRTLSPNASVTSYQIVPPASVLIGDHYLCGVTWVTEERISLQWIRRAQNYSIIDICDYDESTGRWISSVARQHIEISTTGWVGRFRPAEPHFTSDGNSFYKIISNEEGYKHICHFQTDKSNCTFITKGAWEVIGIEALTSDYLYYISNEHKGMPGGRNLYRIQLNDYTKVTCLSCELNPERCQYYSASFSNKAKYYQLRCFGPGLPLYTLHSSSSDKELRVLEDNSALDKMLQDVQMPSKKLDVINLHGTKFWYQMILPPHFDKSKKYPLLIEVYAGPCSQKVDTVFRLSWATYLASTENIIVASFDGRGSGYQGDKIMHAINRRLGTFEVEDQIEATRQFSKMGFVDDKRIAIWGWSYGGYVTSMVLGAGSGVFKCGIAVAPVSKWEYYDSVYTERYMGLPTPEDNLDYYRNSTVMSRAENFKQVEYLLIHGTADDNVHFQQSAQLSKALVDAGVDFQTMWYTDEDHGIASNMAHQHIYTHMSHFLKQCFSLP
DPP-IV, sequence (P27487 whole entry, species assumed): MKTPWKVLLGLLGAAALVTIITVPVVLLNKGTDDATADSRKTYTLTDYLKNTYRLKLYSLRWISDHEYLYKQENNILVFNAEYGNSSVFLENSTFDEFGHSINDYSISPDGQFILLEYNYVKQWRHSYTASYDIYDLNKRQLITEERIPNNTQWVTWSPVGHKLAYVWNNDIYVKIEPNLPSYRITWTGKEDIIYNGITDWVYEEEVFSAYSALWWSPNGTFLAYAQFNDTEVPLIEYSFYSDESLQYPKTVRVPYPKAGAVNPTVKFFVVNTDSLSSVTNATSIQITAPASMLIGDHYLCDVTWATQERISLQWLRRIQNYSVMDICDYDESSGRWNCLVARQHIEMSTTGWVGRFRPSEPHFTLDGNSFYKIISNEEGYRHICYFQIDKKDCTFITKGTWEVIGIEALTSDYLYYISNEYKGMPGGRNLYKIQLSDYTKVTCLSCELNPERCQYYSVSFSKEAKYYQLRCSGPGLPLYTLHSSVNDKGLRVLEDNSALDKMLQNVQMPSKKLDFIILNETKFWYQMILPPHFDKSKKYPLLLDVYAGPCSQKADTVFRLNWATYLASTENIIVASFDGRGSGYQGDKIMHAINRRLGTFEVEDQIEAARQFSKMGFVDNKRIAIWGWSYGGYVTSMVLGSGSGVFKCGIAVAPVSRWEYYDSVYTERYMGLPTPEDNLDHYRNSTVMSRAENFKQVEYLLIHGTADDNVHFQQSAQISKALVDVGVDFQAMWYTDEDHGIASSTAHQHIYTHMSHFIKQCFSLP

In turn, `C[C@H](NC(=O)CNC(=O)[C@@H]1CCCN1C(=O)CN)C(=O)O` [Gly-Pro-Gly-Ala] (H-GPGA-OH; N-terminus and C-terminus assumed) showed a pIC50 in assay [1] of 4.38.
In the case of “VAGTWY [Val-Ala-Gly-Thr-Trp-Tyr, peptide prepared from β-lactoglobulin]”, at DPP-IV, the negative-log IC50 (pIC50) was 3.76.
As to “Ile-Pro-Ala [peptide prepared from β-lactoglobulin]”, the negative logarithm of the IC50 (pIC50) at DPP-IV is 4.31.
Compound `C[C@H](NC(=O)[C@@H]1CCCN1C(=O)CN)C(=O)N[C@@H](CCC(=O)O)C(=O)O` [Gly-Pro-Ala-Glu] (H-GPAE-OH; N-terminus and C-terminus assumed) gave a pIC50 in assay [1] of 4.30.

What is called pIC50 is the IC50 on a negative log10 scale, so that one unit is a factor of ten.

(Values after patent US20140193463A1, “PEPTIDE FOR INHIBITING DIPEPTIDYL-PEPTIDASE IV” (CHINA MEDICAL UNIVERSITY, priority 2013, published 2014).)
